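Results reflect a 48-hour exposure of cells in 96-well plates to compound at five concentrations. Here, GI50 denotes the concentration required for 50% inhibition of growth.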 The source made the active and inactive calls. Rule as the data show it: active = GI50 up to about 1.1 µM and inactive = higher.
Key:
Experiment in all cases: growth of human tumour cells (NCI), 48 h
MOLT-4 = tested on: MOLT-4
MDA-N = tested on: MDA-N
BT-549 = tested on: BT-549
UACC-257 = tested on: UACC-257
SW-620 = tested on: SW-620
A549 = tested on: A549
SF-268 = tested on: SF-268
Malme-3M = tested on: Malme-3M
RXF 393 = tested on: RXF 393
ACHN = tested on: ACHN
LOX IMVI = tested on: LOX IMVI
MDA-MB-231 = tested on: MDA-MB-231
HCC 2998 = tested on: HCC 2998
CAKI-1 = tested on: CAKI-1
CCRF-CEM = tested on: CCRF-CEM
A498 = tested on: A498
HOP-92 = tested on: HOP-92
M14 = tested on: M14
SNB-75 = tested on: SNB-75
SF-539 = tested on: SF-539
SK-MEL-5 = tested on: SK-MEL-5
786-0 = tested on: 786-0
NCI-H460 = tested on: NCI-H460
Hs-578T = tested on: Hs-578T
OVCAR-3 = tested on: OVCAR-3
SK-OV-3 = tested on: SK-OV-3
NCI-H23 = tested on: NCI-H23
HT-29 = tested on: HT-29
SF-295 = tested on: SF-295
NCI-H226 = tested on: NCI-H226
MCF7 = tested on: MCF7
NCI-H522 = tested on: NCI-H522
HCT-15 = tested on: HCT-15
NCI/ADR-RES = tested on: NCI/ADR-RES
K562 = tested on: K562
IGROV-1 = tested on: IGROV-1
TK-10 = tested on: TK-10
U-251 = tested on: U-251
HCT-116 = tested on: HCT-116
RPMI-8226 = tested on: RPMI-8226
COLO 205 = tested on: COLO 205
UO-31 = tested on: UO-31
UACC-62 = tested on: UACC-62
OVCAR-5 = tested on: OVCAR-5
T47D = tested on: T47D
OVCAR-8 = tested on: OVCAR-8
SK-MEL-2 = tested on: SK-MEL-2
PC-3 = tested on: PC-3
HL-60 = tested on: HL-60
SN12C = tested on: SN12C
OVCAR-4 = tested on: OVCAR-4
MDA-MB-435 = tested on: MDA-MB-435
EKVX = tested on: EKVX
HOP-62 = tested on: HOP-62
KM12 = tested on: KM12
DU-145 = tested on: DU-145
SNB-19 = tested on: SNB-19
SK-MEL-28 = tested on: SK-MEL-28
SR = tested on: SR

SMILES: c1ccc2c(c1)Cn1c-2nc2ccccc21
- GI50 (MOLT-4): 31.1 µM (inactive)
- GI50 (MDA-N): > 100 µM (inactive)
- GI50 (BT-549): > 100 µM (inactive)
- GI50 (UACC-257): > 100 µM (inactive)
- GI50 (SW-620): > 100 µM (inactive)
- GI50 (A549): 67.6 µM (inactive)
- GI50 (SF-268): > 100 µM (inactive)
- GI50 (Malme-3M): 76 µM (inactive)
- GI50 (RXF 393): 82 µM (inactive)
- GI50 (ACHN): 96.6 µM (inactive)
- GI50 (LOX IMVI): > 100 µM (inactive)
- GI50 (MDA-MB-231): > 100 µM (inactive)
- GI50 (HCC 2998): > 100 µM (inactive)
- GI50 (CAKI-1): > 100 µM (inactive)
- GI50 (CCRF-CEM): > 100 µM (inactive)
- GI50 (A498): > 100 µM (inactive)
- GI50 (HOP-92): > 100 µM (inactive)
- GI50 (M14): > 100 µM (inactive)
- GI50 (SNB-75): < 0.01 µM (active)
- GI50 (SF-539): > 100 µM (inactive)
- GI50 (SK-MEL-5): 42.4 µM (inactive)
- GI50 (786-0): > 100 µM (inactive)
- GI50 (NCI-H460): 97.3 µM (inactive)
- GI50 (Hs-578T): > 100 µM (inactive)
- GI50 (OVCAR-3): > 100 µM (inactive)
- GI50 (SK-OV-3): > 100 µM (inactive)
- GI50 (NCI-H23): > 100 µM (inactive)
- GI50 (HT-29): > 100 µM (inactive)
- GI50 (SF-295): > 100 µM (inactive)
- GI50 (NCI-H226): 61.7 µM (inactive)
- GI50 (MCF7): > 100 µM (inactive)
- GI50 (NCI-H522): 43.1 µM (inactive)
- GI50 (HCT-15): 94.4 µM
- GI50 (NCI/ADR-RES): > 100 µM (inactive)
- GI50 (K562): > 100 µM (inactive)
- GI50 (IGROV-1): > 100 µM (inactive)
- GI50 (TK-10): > 100 µM (inactive)
- GI50 (U-251): > 100 µM (inactive)
- GI50 (HCT-116): > 100 µM (inactive)
- GI50 (RPMI-8226): 65 µM (inactive)
- GI50 (COLO 205): 98.4 µM (inactive)
- GI50 (UO-31): 4.83 µM (inactive)
- GI50 (UACC-62): > 100 µM (inactive)
- GI50 (OVCAR-5): > 100 µM (inactive)
- GI50 (T47D): > 100 µM (inactive)
- GI50 (OVCAR-8): > 100 µM (inactive)
- GI50 (SK-MEL-2): > 100 µM (inactive)
- GI50 (PC-3): > 100 µM (inactive)
- GI50 (HL-60): > 100 µM (inactive)
- GI50 (SN12C): > 100 µM (inactive)
- GI50 (OVCAR-4): > 100 µM (inactive)
- GI50 (MDA-MB-435): > 100 µM (inactive)
- GI50 (EKVX): > 100 µM (inactive)
- GI50 (HOP-62): > 100 µM (inactive)
- GI50 (KM12): > 100 µM (inactive)
- GI50 (DU-145): 23.9 µM (inactive)
- GI50 (SNB-19): > 100 µM (inactive)
- GI50 (SK-MEL-28): > 100 µM (inactive)

SMILES: S=C1/C(=N/c2ccccc2)N(c2ccccc2)/C(=N\c2cccc[n+]2Cc2ccccc2)N1c1ccccc1
- GI50 (MOLT-4): 8.79 µM (inactive)
- GI50 (MDA-N): 11.5 µM (inactive)
- GI50 (BT-549): 14.3 µM (inactive)
- GI50 (UACC-257): 17.3 µM (inactive)
- GI50 (SW-620): 13.9 µM (inactive)
- GI50 (A549): 20.9 µM (inactive)
- GI50 (SF-268): 20.6 µM (inactive)
- GI50 (Malme-3M): 14.4 µM (inactive)
- GI50 (RXF 393): 13.4 µM (inactive)
- GI50 (ACHN): 17 µM (inactive)
- GI50 (MDA-MB-231): 14.9 µM (inactive)
- GI50 (HCC 2998): 13.9 µM (inactive)
- GI50 (CAKI-1): 18.9 µM (inactive)
- GI50 (HOP-92): 16.6 µM (inactive)
- GI50 (M14): 12.9 µM (inactive)
- GI50 (SNB-75): < 0.01 µM (active)
- GI50 (SF-539): 16.3 µM (inactive)
- GI50 (SK-MEL-5): 12.8 µM (inactive)
- GI50 (786-0): 15.8 µM (inactive)
- GI50 (NCI-H460): 18.7 µM (inactive)
- GI50 (Hs-578T): 33.9 µM (inactive)
- GI50 (OVCAR-3): 18.5 µM (inactive)
- GI50 (SK-OV-3): 21.7 µM (inactive)
- GI50 (NCI-H23): 19 µM (inactive)
- GI50 (HT-29): 16.4 µM (inactive)
- GI50 (SF-295): 13.4 µM (inactive)
- GI50 (NCI-H226): 19.3 µM (inactive)
- GI50 (MCF7): 18.9 µM (inactive)
- GI50 (NCI-H522): 13.3 µM (inactive)
- GI50 (HCT-15): 21.4 µM
- GI50 (NCI/ADR-RES): 39.9 µM (inactive)
- GI50 (K562): 4.25 µM (inactive)
- GI50 (IGROV-1): 22.5 µM (inactive)
- GI50 (TK-10): 26.3 µM (inactive)
- GI50 (U-251): > 10 µM (inactive)
- GI50 (HCT-116): 11.1 µM (inactive)
- GI50 (RPMI-8226): 17.4 µM (inactive)
- GI50 (COLO 205): 17.1 µM (inactive)
- GI50 (SR): 15.3 µM (inactive)
- GI50 (UO-31): 16.4 µM (inactive)
- GI50 (UACC-62): 11.9 µM (inactive)
- GI50 (OVCAR-5): 15.9 µM (inactive)
- GI50 (T47D): 22.8 µM (inactive)
- GI50 (OVCAR-8): 17.9 µM (inactive)
- GI50 (SK-MEL-2): 24.3 µM (inactive)
- GI50 (PC-3): 12.1 µM (inactive)
- GI50 (SN12C): 21 µM (inactive)
- GI50 (MDA-MB-435): 10.6 µM (inactive)
- GI50 (EKVX): 19.7 µM (inactive)
- GI50 (HOP-62): 13 µM (inactive)
- GI50 (KM12): 16.6 µM (inactive)
- GI50 (DU-145): 28.1 µM (inactive)
- GI50 (SNB-19): 15.4 µM (inactive)
- GI50 (SK-MEL-28): 17.6 µM (inactive)

SMILES: Cc1ccc(/N=C2/SC(c3ccc(C)cc3)(c3ccc(C)cc3)c3ccccc32)cc1
- GI50 (MOLT-4): > 100 µM (inactive)
- GI50 (MDA-N): > 100 µM (inactive)
- GI50 (BT-549): > 100 µM (inactive)
- GI50 (UACC-257): > 100 µM (inactive)
- GI50 (SW-620): > 100 µM (inactive)
- GI50 (A549): > 100 µM (inactive)
- GI50 (SF-268): > 100 µM (inactive)
- GI50 (Malme-3M): > 100 µM (inactive)
- GI50 (RXF 393): > 100 µM (inactive)
- GI50 (ACHN): > 100 µM (inactive)
- GI50 (LOX IMVI): > 100 µM (inactive)
- GI50 (MDA-MB-231): > 100 µM (inactive)
- GI50 (HCC 2998): > 100 µM (inactive)
- GI50 (CAKI-1): > 100 µM (inactive)
- GI50 (CCRF-CEM): > 100 µM (inactive)
- GI50 (A498): > 100 µM (inactive)
- GI50 (HOP-92): > 100 µM (inactive)
- GI50 (M14): > 100 µM (inactive)
- GI50 (SNB-75): > 100 µM (inactive)
- GI50 (SF-539): > 100 µM (inactive)
- GI50 (SK-MEL-5): > 100 µM (inactive)
- GI50 (786-0): > 100 µM (inactive)
- GI50 (NCI-H460): > 100 µM (inactive)
- GI50 (Hs-578T): > 100 µM (inactive)
- GI50 (OVCAR-3): > 100 µM (inactive)
- GI50 (SK-OV-3): > 100 µM (inactive)
- GI50 (NCI-H23): > 100 µM (inactive)
- GI50 (HT-29): > 100 µM (inactive)
- GI50 (SF-295): > 100 µM (inactive)
- GI50 (NCI-H226): > 100 µM (inactive)
- GI50 (MCF7): > 100 µM (inactive)
- GI50 (NCI-H522): > 100 µM (inactive)
- GI50 (HCT-15): > 100 µM
- GI50 (NCI/ADR-RES): > 100 µM (inactive)
- GI50 (K562): > 100 µM (inactive)
- GI50 (IGROV-1): > 100 µM (inactive)
- GI50 (TK-10): > 100 µM (inactive)
- GI50 (U-251): > 100 µM (inactive)
- GI50 (HCT-116): > 100 µM (inactive)
- GI50 (RPMI-8226): > 100 µM (inactive)
- GI50 (COLO 205): > 100 µM (inactive)
- GI50 (UO-31): > 100 µM (inactive)
- GI50 (UACC-62): > 100 µM (inactive)
- GI50 (OVCAR-5): > 100 µM (inactive)
- GI50 (T47D): > 100 µM (inactive)
- GI50 (OVCAR-8): > 100 µM (inactive)
- GI50 (SK-MEL-2): > 100 µM (inactive)
- GI50 (PC-3): > 100 µM (inactive)
- GI50 (HL-60): > 100 µM (inactive)
- GI50 (SN12C): > 100 µM (inactive)
- GI50 (OVCAR-4): > 100 µM (inactive)
- GI50 (MDA-MB-435): > 100 µM (inactive)
- GI50 (EKVX): > 100 µM (inactive)
- GI50 (HOP-62): > 100 µM (inactive)
- GI50 (KM12): > 100 µM (inactive)
- GI50 (DU-145): > 100 µM (inactive)
- GI50 (SNB-19): > 100 µM (inactive)
- GI50 (SK-MEL-28): > 100 µM (inactive)

Reference: ChEMBL document CHEMBL1201862, “PubChem BioAssay data set” (2004)
